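A five-concentration, 48-hour dose response in 96-well plates underlies each endpoint, interpolated linearly between surrounding concentrations. GI50 = concentration required for 50% inhibition of growth. The concentration for full growth arrest is given as TGI.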

Some test systems named below: M14 melanoma; HOP-92 NSCLC; SR leukemia; OVCAR-8 ovarian; A498 renal; HL-60(TB) leukemia; HCC-2998 colon; MDA-MB-231 breast; RPMI-8226 leukemia; NCI/ADR-RES ovarian.
What all share (assay): NCI-60 cell line screen, 48 h

With `O=C(NCc1cccnc1)NCc1cccnc1`, the TGI in the assay with M14 melanoma, in the assay with HOP-92 NSCLC, in the assay on SR leukemia, in the assay on OVCAR-8 ovarian, in the assay with A498 renal and with HL-60(TB) leukemia was more than 100 µM in each case. Besides, the TGI with HCC-2998 colon, in the assay with MDA-MB-231 breast, in the assay with RPMI-8226 leukemia and in the assay with NCI/ADR-RES ovarian was more than 100 µM each time.
On to `O=C(O[C@H]1[C@@H](O)[C@H](n2cnc3c(Cl)ncnc32)O[C@@H]1COC(c1ccccc1)(c1ccccc1)c1ccccc1)c1ccccc1`, for which the TGI with M14 melanoma was more than 100 µM; with HOP-92 NSCLC it was 44.8 µM; in the assay with SR leukemia, 18.6 µM; with OVCAR-8 ovarian, more than 100 µM; with A498 renal, 31 µM; in the assay on HL-60(TB) leukemia, 40.7 µM. Besides, the TGI with HCC-2998 colon is 41.9 µM; in the assay on MDA-MB-231 breast, 51.1 µM; in the assay on RPMI-8226 leukemia, 5.39 µM; in the assay with NCI/ADR-RES ovarian it was more than 100 µM.
Take `CC1=NN(c2ccccc2)C(=O)/C1=C/c1ccc(O)cc1`: the TGI with M14 melanoma, in the assay on HOP-92 NSCLC, in the assay with SR leukemia, with OVCAR-8 ovarian, with A498 renal and with HL-60(TB) leukemia was more than 100 µM throughout. In addition, the TGI with HCC-2998 colon, in the assay with MDA-MB-231 breast, with RPMI-8226 leukemia and with NCI/ADR-RES ovarian was more than 100 µM in each case.
Consider `CCOC(=O)c1c(N2CCCC2)nsc1Nc1ccccc1`, for which the TGI in the assay with M14 melanoma, in the assay with HOP-92 NSCLC, in the assay with SR leukemia, in the assay with OVCAR-8 ovarian, in the assay on A498 renal and in the assay on HL-60(TB) leukemia was more than 100 µM in each case. Moreover, the TGI in the assay on HCC-2998 colon, with MDA-MB-231 breast, with RPMI-8226 leukemia and with NCI/ADR-RES ovarian was more than 100 µM in each case.
As to `COC(=O)C1C(OC(=O)c2ccccc2)CC2CCC1N2C(N)=O` (stereo unspecified), the TGI in the assay on M14 melanoma, in the assay with HOP-92 NSCLC, in the assay with SR leukemia, in the assay on OVCAR-8 ovarian, with A498 renal and in the assay with HL-60(TB) leukemia was more than 100 µM throughout. Moreover, the TGI in the assay on HCC-2998 colon, in the assay with MDA-MB-231 breast, in the assay on RPMI-8226 leukemia and in the assay on NCI/ADR-RES ovarian was more than 100 µM in each case.
Regarding `CCCN(C(=O)c1c(Cl)nnc(Cl)c1C(=O)c1cc(Cl)nnc1Cl)c1cc(Cl)nnc1Cl`, the TGI with M14 melanoma was 40.8 µM; with HOP-92 NSCLC it was 36.9 µM; with SR leukemia, 20.3 µM; in the assay on OVCAR-8 ovarian it was 5.78 µM; in the assay with A498 renal it was 33.1 µM; with HL-60(TB) leukemia it was 7.16 µM. Besides, the TGI in the assay with HCC-2998 colon came to 32.3 µM; in the assay on MDA-MB-231 breast, 34.3 µM; in the assay with RPMI-8226 leukemia it was 17.1 µM; in the assay on NCI/ADR-RES ovarian, 69.1 µM.
Turning to `C#CCOCC12C=CC(O1)C1C(=O)N(C)C(=O)C12` (stereo unspecified), the TGI with M14 melanoma, with HOP-92 NSCLC, with SR leukemia, in the assay with OVCAR-8 ovarian, in the assay on A498 renal and in the assay with HL-60(TB) leukemia was more than 100 µM in each case. The TGI in the assay on HCC-2998 colon, with MDA-MB-231 breast, in the assay on RPMI-8226 leukemia and with NCI/ADR-RES ovarian was more than 100 µM in each case. In addition, the GI50 in the assay with HOP-92 NSCLC is more than 100 µM.
On to `COc1nc(N)c(NC2OC(CO)C(O)C2O)c(=O)[nH]1` (stereo unspecified), for which the TGI in the assay with M14 melanoma, in the assay on HOP-92 NSCLC, in the assay on SR leukemia, in the assay on OVCAR-8 ovarian, with A498 renal and in the assay with HL-60(TB) leukemia was more than 100 µM in each case. Also, the TGI with HCC-2998 colon, in the assay on MDA-MB-231 breast, in the assay with RPMI-8226 leukemia and in the assay with NCI/ADR-RES ovarian was more than 100 µM throughout.
Take `C=Cc1c(C)c(OC)cc2c1Oc1ccc(OC)c(C)c1CC2`: the TGI in the assay with M14 melanoma, with HOP-92 NSCLC, in the assay with SR leukemia, in the assay with OVCAR-8 ovarian, with A498 renal and in the assay with HL-60(TB) leukemia was more than 100 µM each time. For the same molecule, the TGI in the assay with HCC-2998 colon, in the assay with MDA-MB-231 breast, in the assay with RPMI-8226 leukemia and in the assay on NCI/ADR-RES ovarian was more than 100 µM each time.
For `CCOC(=O)/C(C(=S)Nc1ccccc1)=C(/N)N1CCCC1`, the TGI was more than 100 µM with M14 melanoma; 53.2 µM with HOP-92 NSCLC; more than 100 µM with SR leukemia; more than 100 µM in the assay on OVCAR-8 ovarian; more than 100 µM with A498 renal; more than 100 µM with HL-60(TB) leukemia. For the same molecule, the TGI in the assay on HCC-2998 colon, in the assay with MDA-MB-231 breast, in the assay on RPMI-8226 leukemia and in the assay with NCI/ADR-RES ovarian was more than 100 µM in each case.
Turning to `Fc1ccc2nc3n(c2c1)C(c1c(F)cccc1F)SC3` (stereo unspecified), the TGI with M14 melanoma was more than 100 µM; in the assay with HOP-92 NSCLC it was more than 100 µM; in the assay on SR leukemia, 76.2 µM; with OVCAR-8 ovarian, more than 100 µM; with A498 renal, more than 100 µM; in the assay on HL-60(TB) leukemia, 53 µM. The TGI in the assay on HCC-2998 colon, in the assay with MDA-MB-231 breast, with RPMI-8226 leukemia and with NCI/ADR-RES ovarian was more than 100 µM throughout.
As to `COc1c2c(cc3oc(C)cc(=O)c13)OC(=N)C(C(N)=O)C2CC(=O)c1ccc(N)cc1` (stereo unspecified), the TGI in the assay with M14 melanoma, with HOP-92 NSCLC, with SR leukemia, with OVCAR-8 ovarian, with A498 renal and in the assay with HL-60(TB) leukemia was more than 100 µM throughout. For the same molecule, the TGI with HCC-2998 colon, with MDA-MB-231 breast, in the assay on RPMI-8226 leukemia and in the assay with NCI/ADR-RES ovarian was more than 100 µM throughout.
With `Cc1n[nH]c(=O)c2cc(-c3ccccc3)[nH]c12`, the TGI was more than 100 µM in the assay with M14 melanoma; more than 100 µM in the assay on HOP-92 NSCLC; more than 100 µM in the assay on SR leukemia; more than 100 µM in the assay with OVCAR-8 ovarian; 92.3 µM in the assay with A498 renal; more than 100 µM in the assay with HL-60(TB) leukemia. Besides, the TGI in the assay on HCC-2998 colon, with MDA-MB-231 breast, in the assay on RPMI-8226 leukemia and with NCI/ADR-RES ovarian was more than 100 µM throughout.

Values taken from PubChem BioAssay (NCI).
